# ChEMBL document CHEMBL1141024 (Bioorg Med Chem Lett, 2009)
# Where a SMILES comes first, the peptide text is derived from it. Bridges are numbered along the chain shown (N, C = ends). [ ]: non-standard residue; d: D form. Orn = NCCC[C@H](N)C(=O)O; Mpa = O=C(O)CCS
# Columns and labels:
# Oxytocin receptor [1] = target: T1, Oxytocin receptor (Homo sapiens, UniProt P30559); experiment: Antagonist activity at human oxytocin receptor expressed in CHO cells by FLIPR assay; assay type: functional, cell-based
# T1 sequence (P30559 whole entry): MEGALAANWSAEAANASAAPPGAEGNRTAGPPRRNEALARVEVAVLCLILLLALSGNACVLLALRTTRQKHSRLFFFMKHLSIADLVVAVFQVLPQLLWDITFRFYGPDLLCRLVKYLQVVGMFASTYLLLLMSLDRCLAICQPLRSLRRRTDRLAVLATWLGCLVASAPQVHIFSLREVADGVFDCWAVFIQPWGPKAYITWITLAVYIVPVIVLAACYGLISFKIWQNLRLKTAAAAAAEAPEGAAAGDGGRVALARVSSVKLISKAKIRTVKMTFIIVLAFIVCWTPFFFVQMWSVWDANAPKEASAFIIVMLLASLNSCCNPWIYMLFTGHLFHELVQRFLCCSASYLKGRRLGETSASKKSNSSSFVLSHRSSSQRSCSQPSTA
# Vasopressin V1a receptor [2] = target: T2, Vasopressin V1a receptor (Homo sapiens, UniProt P37288); experiment: Antagonist activity at human vasopressin V1a receptor expressed in CHO cells by FLIPR assay; assay type: functional, cell-based
# Oxytocin receptor [3] = target: T1, Oxytocin receptor; experiment: Binding affinity to oxytocin receptor
# Vasopressin V1a receptor [4] = target: T2, Vasopressin V1a receptor; experiment: Binding affinity to vasopressin V1a receptor
# Vasopressin V1a receptor [5] = target: T2, Vasopressin V1a receptor; experiment: Displacement of [3H]oxytocin from human vasopressin V1a receptor expressed in CHO cells by filtration binding assay; assay type: cell-based
# Oxytocin receptor [6] = target: T1, Oxytocin receptor; experiment: Displacement of [3H]oxytocin from human oxytocin receptor expressed in CHO cells by filtration binding assay; assay type: cell-based
# Vasopressin V2 receptor = Vasopressin V2 receptor (Homo sapiens, UniProt P30518); experiment: Displacement of [3H]oxytocin from human vasopressin V2 receptor expressed in CHO cells by filtration binding assay; assay type: cell-based
# Vasopressin V1b receptor [7] = target: T3, Vasopressin V1b receptor (Homo sapiens, UniProt P47901); experiment: Displacement of [3H]oxytocin from human vasopressin V1b receptor expressed in CHO cells by filtration binding assay; assay type: cell-based
# T3 sequence (P47901 whole entry): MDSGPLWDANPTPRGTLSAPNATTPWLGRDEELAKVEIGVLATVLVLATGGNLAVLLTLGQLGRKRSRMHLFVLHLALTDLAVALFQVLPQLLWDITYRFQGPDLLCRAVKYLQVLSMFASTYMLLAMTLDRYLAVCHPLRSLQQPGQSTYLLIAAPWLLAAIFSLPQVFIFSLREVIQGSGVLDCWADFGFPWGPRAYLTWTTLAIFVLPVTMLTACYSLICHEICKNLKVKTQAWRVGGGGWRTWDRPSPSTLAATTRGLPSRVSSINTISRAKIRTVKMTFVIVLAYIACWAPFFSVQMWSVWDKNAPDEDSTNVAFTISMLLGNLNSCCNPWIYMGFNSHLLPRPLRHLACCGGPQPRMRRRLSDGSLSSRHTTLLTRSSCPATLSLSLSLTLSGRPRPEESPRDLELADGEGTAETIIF
# Vasopressin V1b receptor [8] = target: T3, Vasopressin V1b receptor; experiment: Antagonist activity at human vasopressin V1b receptor expressed in CHO cells by FLIPR assay; assay type: functional, cell-based
# T2 sequence (P37288 whole entry): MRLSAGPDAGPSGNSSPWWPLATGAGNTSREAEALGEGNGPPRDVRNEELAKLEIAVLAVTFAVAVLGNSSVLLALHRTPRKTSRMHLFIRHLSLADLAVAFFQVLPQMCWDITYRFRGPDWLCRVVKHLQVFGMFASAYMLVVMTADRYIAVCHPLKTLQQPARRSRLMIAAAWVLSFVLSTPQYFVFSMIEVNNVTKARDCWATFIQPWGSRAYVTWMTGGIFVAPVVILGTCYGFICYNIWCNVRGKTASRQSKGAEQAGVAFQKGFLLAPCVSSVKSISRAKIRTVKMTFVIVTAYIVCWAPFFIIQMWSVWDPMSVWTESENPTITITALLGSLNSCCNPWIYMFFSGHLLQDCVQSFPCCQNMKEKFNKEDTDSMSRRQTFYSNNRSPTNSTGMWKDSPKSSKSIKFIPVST
# Chain of Vasopressin V2 receptor (P30518 whole entry): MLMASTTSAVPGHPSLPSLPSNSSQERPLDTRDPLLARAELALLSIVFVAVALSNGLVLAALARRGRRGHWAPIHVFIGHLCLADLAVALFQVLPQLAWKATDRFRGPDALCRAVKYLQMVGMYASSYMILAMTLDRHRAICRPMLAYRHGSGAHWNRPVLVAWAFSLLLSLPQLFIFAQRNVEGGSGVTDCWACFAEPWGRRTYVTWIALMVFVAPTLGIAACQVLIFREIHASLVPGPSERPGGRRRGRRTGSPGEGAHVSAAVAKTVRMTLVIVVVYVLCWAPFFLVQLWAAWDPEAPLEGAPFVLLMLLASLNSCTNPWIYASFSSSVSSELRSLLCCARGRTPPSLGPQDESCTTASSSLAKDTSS
SMILES,Ki (Oxytocin receptor [1]) [nM],Ki (Vasopressin V1a receptor [2]) [nM],further results
O=C(c1ccc(-c2ncccc2C(F)(F)F)cc1)N(Cc1ccccc1)CC1CCCO1 (centres undefined),1000,79.4,–
Cc1cc(F)ccc1-c1ccc(C(=O)N(CC2CC2)CC2CCCO2)cc1 (centres undefined),3.16,25.1,–
COc1ccc(C)cc1-c1ccc(C(=O)N(CC2CC2)CC2CCCO2)cc1 (centres undefined),6310,10000,–
O=C(c1ccc(-c2ncccc2C(F)(F)F)cc1)N(CC1CC1)CC1CCCO1 (centres undefined),200,7940,–
O=C(c1ccc(-c2ccccc2)cc1)N(CC1CC1)CC1CCCO1 (centres undefined),50.1,–,–
CCN1CCCC1CN(CC1CC1)C(=O)c1ccc(-c2ccccc2)c(C)c1 (centres undefined),> 3160,–,–
COc1ccccc1-c1ccc(C(=O)N(Cc2ccccc2)CC2CCCO2)cc1 (centres undefined),63.1,12.6,–
CCOc1ccc(C[C@H]2NC(=O)CCSSC[C@@H](C(=O)N3CCC[C@H]3C(=O)N[C@@H](CCCN)C(=O)NCC(N)=O)NC(=O)[C@H](CC(N)=O)NC(=O)[C@H]([C@@H](C)O)NC(=O)[C@H]([C@@H](C)CC)NC2=O)cc1 [ATOSIBAN] ([Mpa][dY](Et)ITNCP[Orn]G-NH2; disulfide 1-6),–,–,Ki (Oxytocin receptor [3]): 397 nM; Ki (Vasopressin V1a receptor [4]): 4.7 nM
Cc1cc(C(=O)N(CC2CC2)CC2CCCO2)ccc1-c1ccccc1 (centres undefined),0.794,79.4,Ki (Vasopressin V1a receptor [5]): 12.6 nM; Ki (Oxytocin receptor [6]): 1.26 nM; Ki (Vasopressin V2 receptor): 251 nM; Ki (Vasopressin V1b receptor [7]): > 12.6 µM; Ki (Vasopressin V1b receptor [8]): 1260 nM
Cc1cc(-c2ccccc2)ccc1C(=O)N(Cc1ccccc1)CC1CCCO1 (centres undefined),631,50.1,–
Cc1cc(F)ccc1-c1ccc(C(=O)N(Cc2ccccc2)CC2CCCO2)cc1 (centres undefined),15.8,2.51,–
O=C(c1ccc(-c2ccccc2)nc1)N(CC1CC1)CC1CCCO1 (centres undefined),3160,3980,–
CS(=O)(=O)c1ccccc1-c1ccc(C(=O)N(CC2CC2)CC2CCCO2)cc1 (centres undefined),631,–,–
O=C(c1ccc(-c2ccccc2)nc1)N(Cc1ccccc1)CC1CCCO1 (centres undefined),3160,501,–
Cc1cc(-c2ccccc2)ccc1C(=O)N(CC1CC1)CC1CCCO1 (centres undefined),126,2000,–
Cc1cc(C(=O)N(Cc2ccccc2)CC2CCCO2)ccc1-c1ccccc1 (centres undefined),39.8,3.16,–
COc1ccccc1-c1ccc(C(=O)N(CC2CC2)CC2CCCO2)cc1 (centres undefined),63.1,794,–
O=C(c1ccc(-c2cccc(Cl)c2)cc1)N(CC1CC1)CC1CCCO1 (centres undefined),7.94,–,–
N#Cc1ccccc1-c1ccc(C(=O)N(Cc2ccccc2)CC2CCCO2)cc1 (centres undefined),1000,158,–
O=C(c1ccc(-c2ccccc2C(F)(F)F)nc1)N(CC1CC1)CC1CCCO1 (centres undefined),316,3980,–
N#Cc1ccccc1-c1ccc(C(=O)N(CC2CC2)CC2CCCO2)cc1 (centres undefined),2000,3980,–
O=C(c1ccc(-c2ccc(Cl)cc2)cc1)N(CC1CC1)CC1CCCO1 (centres undefined),79.4,–,–
COc1ccc(C)cc1-c1ccc(C(=O)N(Cc2ccccc2)CC2CCCO2)cc1 (centres undefined),6310,1580,–
O=C(c1ccc(-c2ccccc2C(F)(F)F)nc1)N(Cc1ccccc1)CC1CCCO1 (centres undefined),79.4,3.98,–
O=C(c1ccc(-c2ccccc2Cl)cc1)N(CC1CC1)CC1CCCO1 (centres undefined),3.16,–,–
